Patent US6949557B2, “Hydroanthracene based compounds as anticancer agents” (Dabur Research Foundation, priority 2003, dated 2005)
≈ marks a conversion by molar mass, not a printed value.

Assays:
[1] = test system: MOLT4; assay: three day MTT cytotoxicity assay, MOLT4; format: cell-based, human; conditions: 72 hours incubation, MOLT4 leukemia cells
Protocol: (§1) A number of the anthracene based compounds were tested for cytotoxicity against 12 human tumor cell lines. Briefly, a three day MTT cytotoxicity assay was performed, which is based on the principle of uptake of MTT (3-(4,5-dimethylthiazol-2-yl)-2,5-diphenyl tetrazolium bromide), a tetrazolium salt, by the metabolically active cells where it is metabolized by active mitochondria into a blue colored formazan product that is read spectrophotometrically. MTT was dissolved in phosphate buffered saline with a pH of 7.4 to obtain an MTT concentration of 5 mg/ml; the resulting mixture was filtered through a 0.22 micron filter to sterilize and remove a small amount of insoluble residue. For each type of tumor cell, 10,000 to 15,000 cells were seeded in a 96-well culture plate and incubated with the individual anthracene based compounds in a CO2 incubator for a total of 72 hours. Control cells not treated with the anthracene based compounds were similarly incubated. The assay was terminated by adding 100 ug (20 ul) of MTT to each well, then incubating for additional one hour, and finally adding 50 ul of 10% SDS-0.01N HCl to each well to lyse the cells and dissolve formazan. After incubating for one hour, the plate was read spectrophotometrically at 540 nm and the percentage of cytotoxicity calculated using the following formula:
(§2) Cytotoxicity percentage=100×[1−(X/R1)],
(§3) where X=(absorbance of treated sample at 540 nm)−(absorbance of blank at 540 nm)
(§4) R1=absorbance of control sample at 540 nm.
(§5) The IC50 Values of the cytotoxicity defined as the concentration at which 50% of the cells are killed in vitro was calculated for each cell line treated with each of the anthracene based compounds.

[2] = test system: HT29; assay: three day MTT cytotoxicity assay, HT29; format: cell-based, human; conditions: 72 hours incubation, HT29 colon cells
Protocol: as §1, §2, §3, §4, §5

[3] = test system: DU145; assay: three day MTT cytotoxicity assay, DU145; format: cell-based, human; conditions: 72 hours incubation, DU145 prostate cells
Protocol: as §1, §2, §3, §4, §5

[4] = test system: KB; assay: three day MTT cytotoxicity assay, KB; format: cell-based, human; conditions: 72 hours incubation, KB oral cells
Protocol: as §1, §2, §3, §4, §5

[5] = test system: L132; assay: three day MTT cytotoxicity assay, L132; format: cell-based, human; conditions: 72 hours incubation, L132 lung cells
Protocol: as §1, §2, §3, §4, §5

[6] = test system: MiaPaca2; assay: three day MTT cytotoxicity assay, MiaPaca2; format: cell-based, human; conditions: 72 hours incubation, MiaPaca2 pancreatic cells
Protocol: as §1, §2, §3, §4, §5

[7] = test system: Hep2; assay: three day MTT cytotoxicity assay, Hep2; format: cell-based, human; conditions: 72 hours incubation, Hep2 larynx cells
Protocol: as §1, §2, §3, §4, §5

[8] = test system: PA1; assay: three day MTT cytotoxicity assay, PA1; format: cell-based, human; conditions: 72 hours incubation, PA1 ovarian cells
Protocol: as §1, §2, §3, §4, §5

[9] = test system: ECV304; assay: three day MTT cytotoxicity assay, ECV304; format: cell-based, human; conditions: 72 hours incubation, ECV304 endothelial cells
Protocol: as §1, §2, §3, §4, §5

[10] = test system: MCF7; assay: three day MTT cytotoxicity assay, MCF7; format: cell-based, human; conditions: 72 hours incubation, MCF7 breast cells
Protocol: as §1, §2, §3, §4, §5

[11] = test system: U87MG; assay: three day MTT cytotoxicity assay, U87MG; format: cell-based, human; conditions: 72 hours incubation, U87MG glioblastoma cells
Protocol: as §1, §2, §3, §4, §5

[12] = test system: PTC; assay: three day MTT cytotoxicity assay, PTC; format: cell-based, human; conditions: 72 hours incubation, PTC colon cells
Protocol: as §1, §2, §3, §4, §5

| Structure (SMILES) | ED50 MOLT4 Leukemia [1] [µg/mL] | ED50 HT29 Colon [2] [µg/mL] | ED50 DU145 Prostate [3] [µg/mL] | ED50 KB Oral [4] [µg/mL] | ED50 L132 Lung [5] [µg/mL] | ED50 MiaPaca2 Pancreatic [6] [µg/mL] | ED50 Hep2 Larynx [7] [µg/mL] | ED50 PA1 Ovarian [8] [µg/mL] | ED50 ECV304 Endothelial [9] [µg/mL] | ED50 MCF7 Breast [10] [µg/mL] | ED50 U87MG Glioblastoma [11] [µg/mL] | ED50 PTC Colon [12] [µg/mL] | melting point [°C] |
| --- | --- | --- | --- | --- | --- | --- | --- | --- | --- | --- | --- | --- | --- |
| CC1=CCC2C(C)(C)C3=C(CC2(C)C1=O)C(=O)C=CC3=O (stereo not shown) [Compound 19, 6,9,9,10a-Tetramethyl-8a,9,10,10a-tetrahydro-8H-anthracene-1,4,5-trione] | 4 (≈ 14.1 µM) | 33 (≈ 116 µM) | 15 (≈ 52.8 µM) | 62 (≈ 218 µM) | 6 (≈ 21.1 µM) | 80 (≈ 281 µM) | 26 (≈ 91.4 µM) | 15 (≈ 52.8 µM) | 6 (≈ 21.1 µM) | 18 (≈ 63.3 µM) | 16 (≈ 56.3 µM) | 40 (≈ 141 µM) |  |
| CC1=CCC2C(C)(C)C3=C(CC2(C)C1OC(=O)c1cc(Cl)nc(Cl)n1)C(=O)C=CC3=O (stereo not shown) [Compound 27, 2,6-Dichloro-pyrimidine-4-carboxylicacid-2,9a,10,10-tetramethyl-5,8-dioxo-1,4,4a,5,8,9,9a,10-octahydro-anthracen-1-yl ester] |  |  |  |  |  |  |  |  |  |  |  |  | 137 to 140 |
| COc1ccc(OC)c2c1C[C@]1(C)C(OC(=O)[C@H](O)[C@@H](N)c3ccccc3)C(C)=CC[C@H]1C2(C)C (stereo partly shown) [Compound 11, 3-Amino-2-hydroxy-3-phenyl-propionic acid 5,8-dimethoxy-2,9a,10,10-tetramethyl-1,4,4a,9,9a,10-hexahydro-anthrcen-1-yl ester] | <1 | 27 (≈ 56.3 µM) | 10 (≈ 20.8 µM) | 18 (≈ 37.5 µM) | 21 (≈ 43.8 µM) | 7 (≈ 14.6 µM) | 16 (≈ 33.4 µM) | 4 (≈ 8.34 µM) | 2 (≈ 4.17 µM) | 8 (≈ 16.7 µM) | 10 (≈ 20.8 µM) |  |  |
| CC1=CCC2C(CC3=C(C(=O)C=CC3=O)C2(C)C)C1OC(=O)C1OC(C)(C)N(C(=O)OC(C)(C)C)C1c1ccccc1 (stereo not shown) [Compound 25, 2,2-Dimethyl-4-phenyl-oxazolidine-3,5-dicarboxylic acid 3-tert-butyl ester 5-(2,10,10-trimethyl-5,8-dioxo-1,4,4a,5,8,9,9a,10-octahydro-anthracen-1-yl) ester] | <1 | 35 (≈ 60.8 µM) | 32 (≈ 55.6 µM) | 35 (≈ 60.8 µM) | 4 (≈ 6.95 µM) | 35 (≈ 60.8 µM) | 11 (≈ 19.1 µM) | 8 (≈ 13.9 µM) | 5 (≈ 8.69 µM) | 16 (≈ 27.8 µM) | 24 (≈ 41.7 µM) | 8 (≈ 13.9 µM) |  |
| CC1=CCC2C(CC3=C(C(=O)C=CC3=O)C2(C)C)C1=O (stereo not shown) [Compound 20, 6,9,9-Trimethyl-8a,9, 10,10a-tetrahydro-8H-anthracene-1,4,5-trione] |  |  |  |  |  |  |  |  |  |  |  |  | 125 to 140 |
| CC1=CCC2C(C)(C)C3=C(CC2(C)C1OC(=O)C(O)C(N)c1ccccc1)C(=O)C=CC3=O (stereo not shown) [Compound 24, 3-Amino-2-hydroxy-3-phenyl-propionic acid 2,9a,10,10-tetramethyl-5,8-dioxo-1,4,4a,5,8,9,9a,10-octahydro-anthracen-1-yl ester] | 7 (≈ 15.6 µM) | 6 (≈ 13.3 µM) | 5 (≈ 11.1 µM) | 6.6 (≈ 14.7 µM) | >100 | >100 | 14 (≈ 31.1 µM) | 8 (≈ 17.8 µM) | 3 (≈ 6.67 µM) | >100 | 5 (≈ 11.1 µM) |  |  |
| CC1=CCC2C(CC3=C(C(=O)C=CC3=O)C2(C)C)C1OC(=O)C(O)C(N)c1ccccc1 (stereo not shown) [Compound 26, 3-Amino-2-hydroxy-3-phenyl-propionic acid 2,10,10-trimethyl-5,8-dioxo-1,4,4a,5,8,9,9a,10-octahydro-anthracen-1-yl ester] | 5.0 (≈ 11.5 µM) | 6.5 (≈ 14.9 µM) | 26 (≈ 59.7 µM) | 31 (≈ 71.2 µM) | 10 (≈ 23 µM) | 35 (≈ 80.4 µM) | 20 (≈ 45.9 µM) | 19 (≈ 43.6 µM) | 29 (≈ 66.6 µM) | 32 (≈ 73.5 µM) | 24 (≈ 55.1 µM) | 5.0 (≈ 11.5 µM) |  |
| COc1ccc(OC)c2c1CC1C(OC(=O)C(O)C(N)c3ccccc3)C(C)=CCC1C2(C)C (stereo not shown) [Compound 7, 3-Amino-2-hydroxy-3-phenyl-propionic acid 5,8-dimethoxy-2,10,10-trimethyl-1,4,4a,9,9a,10-hexahydro-anthracen-1-yl ester] | 5.0 (≈ 10.7 µM) | 8.0 (≈ 17.2 µM) | 33 (≈ 70.9 µM) | 29 (≈ 62.3 µM) | 24 (≈ 51.5 µM) | 35 (≈ 75.2 µM) | 5.0 (≈ 10.7 µM) | 5.0 (≈ 10.7 µM) | 6.0 (≈ 12.9 µM) | 35 (≈ 75.2 µM) | 24 (≈ 51.5 µM) | 5.0 (≈ 10.7 µM) |  |
| COc1ccc(OC)c2c1Cc1c(ccc(C)c1OC(=O)[C@H](O)[C@@H](N)c1ccccc1)C2(C)C [Compound 29, 3-Amino-2-hydroxy-3-phenyl-propionic acid 5,8-dimethoxy-2,10,10,-trimethyl-9,10-dihydro-anthracen-1-yl ester] | 5.0 (≈ 10.8 µM) | 6.5 (≈ 14.1 µM) | 34 (≈ 73.7 µM) | 30 (≈ 65 µM) | 5.0 (≈ 10.8 µM) | 35 (≈ 75.8 µM) | 5.0 (≈ 10.8 µM) | 5.0 (≈ 10.8 µM) | 9.0 (≈ 19.5 µM) | 29 (≈ 62.8 µM) | 8.0 (≈ 17.3 µM) | 5.0 (≈ 10.8 µM) |  |
| CC1=CCC2C(C)(C)C3=C(CC2(C)C1OC(=O)C1OC(C)(C)N(C(=O)OC(C)(C)C)C1c1ccccc1)C(=O)C=CC3=O (stereo not shown) [Compound 23, 2,2-Dimethyl-4-phenyl-oxazolidine-3,5-dicarboxylic acid 3-tert-butyl ester 5-(2,9a,10,10-tetramethyl-5,8-dioxo-1,4,4a,5,8,9,9a,10-octahydro-anthracen-1-yl) ester] |  |  |  |  |  |  |  |  |  |  |  |  | 90 to 92 |
